Experimental data reported in patent US20090118337A1, “Methods and compositions for treating inflammation” (priority 2005, published 2009).
Entries after “also recorded” stand apart in the source; their conditions may differ.

Legend:
[1] = tested on: CF mice challenged with M57-15 P. aeruginosa; experiment: Acute Pseudomonas challenge model, CF mice (BAL inflammatory response); assay type: in vivo; details: pretreated by gavage, BAL 24 hours after P. aeruginosa challenge
Method: Pioglitazone inhibits the inflammatory response in CF mice to acute administration of Pseudomonas: Mice pretreated with pioglitazone or vehicle by gavage, then challenged with prior to challenge with M57-15 P. aeruginosa, underwent BAL for inflammatory response outcome measures 24 hours after challenge. Cell counts, cytokine values, and body weight were recorded. […] CF mice treated with vehicle had marked increase in inflammatory response compared to WT mice treated with vehicle, as previously reported for untreated mice (FIGS. 12-14).
In order to test the therapeutic potential of PPARγ agonists in CF animals, we utilized the acute pseudomonas challenge model in CF and non-CF mice, because it was the closest mimic of the acute pseudomonas challenge applied to the epithelial cells in culture. We administered pioglitazone by gavage because this is one of the two PPARγ agonists available for human use. […] However, the dose used in these studies was high compared to conventional human doses, on a weight basis, and the drug was administered prior to challenge, a luxury that may not be available for many patients with CF.

[2] = tested on: interaction between PPARγ and other transcription factors; experiment: Interaction of PPARγ with other transcription factors in well differentiated airway epithelial cells treated with I172; assay type: cell-based, human; details: I172 20 uM for 72 hr; particularly following stimulation with TNFα/IL1β
Method: Transcription Factor Arrays: TranSignal TF-TF Interaction Array I (Panomics) was processed according to the manufacturer's instructions. Nuclear extracts from 16HBEo-sense and antisense cells were incubated with biotin-labeled double-stranded oligonucleotides. PPARγ was immunoprecipitated with 3 μg of monoclonal antibody and Dynabeads (Dynal), which are magnetic protein G beads. Free cis-elements and non-specific binding proteins were washed away. PPARγ associated biotin-labeled probes were eluted from the beads and hybridized to TranSignal Protein/DNA array membranes. The arrays were blocked and incubated with Streptavidin-HRP and developed with a chemiluminescent detection system.
In order to test the impact of CFTR deficiency on the interaction of PPAR-γ with other transcription factors, we treated well differentiated airway epithelial cells grown at the ALI with I172 (20 uM), an inhibitor of CFTR activity, continuously for 72 hr prior to preparation of nuclear extracts or stimulation. […] This model allows one to compare, in well-differentiated airway epithelial cells that have identical genetic endowment at all loci, the effect of CFTR inhibition on various cellular processes. […] During the course of these experiments, cells from the airways of a patient with CF of genotype ΔF508/ΔF508, obtained at transplant, became available and were cultured at the air-liquid interface.

[3] = tested on: amiloride-sensitive sodium conductance; details: cells grown with 20 μM I172; cited from earlier work
[4] = tested on: IL-8; experiment: IL-8 secretion of cells grown with I172; assay type: cell-based, human; details: cells grown with I172, day 3
Method: (§1) At three or four weeks, on day 0, cells are switched to submerged culture (liquid-liquid interface, LLI) and treated with either DMSO 1:1000 (vehicle control, normal cells, Sigma, St. Louis, Mo.), or 20 μM CFTRinh-172 (kindly provided by Alan Verkman) prepared in DMSO, and diluted from a 1:1000 stock. Drugs are added to both the basolateral (1 or 2 ml volume, according to filter size) and the apical side (0.35 or 1.5 ml) and media replenished every 24H. […] At day 3, cells were committed to inflammatory stimulation with TNF IL-1 or PAO1 as indicated below. Cells committed to PAO1 stimulation were switched to serum-free media 24H prior PAO1 stimulation, kept in serum-free media until the end of the experiment, and media replenished every 12H during that time. Serum-free media contained 1:1 DMEM-Ham's F-12, pH. 7.2, L-glutamine 2.5 mM, Penicillin/Streptomycin 100 units/100 μg per ml, gentamicin 50 μg/ml, amphotericin B 1.25 μg/ml from Gibco, Invitrogen Corporation, Carlsbad, Calif.; fluconazole 2 μg/ml (DIFLUCON®, Pfizer); transferrin 5 μg/ml, hydrocortisone 5 μM, insulin 5 μg/ml, endothelial cell growth supplement 20 μg/mil, and bovine serum albumin 1 mg/ml from Sigma, St. Louis, Mo. Serum-containing media had the same antibiotics present as the serum-free media. Antibiotics were not present during PAO1 stimulation.

[5] = tested on: Smad3; experiment: Smad3 expression in cells grown with I172; assay type: cell-based, human; details: cells grown with I172, day 3
Method: as §1

[6] = tested on: RhoA; experiment: Activated RhoA in cells grown with I172; assay type: cell-based, human; details: cells grown with I172, day 3
Method: as §1

[7] = tested on: well differentiated airway epithelial cells; details: 20 μM I172; cited from earlier work
[8] = high dose, CF; cited from earlier work
[9] = tested on: NF-κB; experiment: NF-κB luciferase reporter gene assay in 16HBEo- cell pairs stimulated with PAO1; assay type: cell-based, human; details: PAO1 stimulation, FIG. 2
Method: Cell lines: 16HBE-S and 16HBE-AS cells were grown in EMEM supplemented with 10% fetal bovine serum, 2 mM L-glutamine, 100 units/100 μg per ml of penicillin-streptomycin and 400 μg/ml G-418 as previously described.
Reporter Gene Assays: Cells were seeded in 24-well tissue culture dishes 24 hours before transfection. 20 ug luciferase plasmid and 10 ug Renilla plasmid were mixed into 2 mls serum-free DMEM. NFκB luciferase and AP-1 plasmids were purchased from BD Biosciences CLONTECH. pRLTK was used as an internal control for transfection efficiency.
300 ul Lipofectamine PLUS reagent (Invitrogen) was mixed with 200 ul serum-free DMEM. The PLUS reagent and plasmid were incubated for 15 minutes at room temperature. 100 ul Lipofectamine was added to 2.4 ml serum-free DMEM.
The lipofectamine and the DNA-PLUS solutions were mixed and incubated for an additional 15 minutes. The transfection mix was diluted into 20 mls of serum-free DMEM. 250 ul of diluted transfection mix was added to each well and the cells were incubated for 3 hours. Cells were lysed and the lysates assayed for luciferase activity.
A final stock concentration of 10 mM troglitazone (Cayman Chemical) was dissolved in DMSO and diluted to various concentrations. DMSO was added to the cells as a control. […]

Structure (SMILES): CCc1ccc(CCOc2ccc(CC3SC(=O)NC3=O)cc2)nc1 (centres unmarked) [pioglitazone, 5-[4-[2-(5-ethylpyridin-2-yl)ethoxyl]benzyl]thiazolidine-2,4-dione]
- inflammatory response (BAL cell counts, cytokine values, body weight) in CF mice [1]: significant reduction of the inflammatory response; also recorded: In two of the three experiments, pioglitazone limited the inflammatory response; also recorded: significant reduction in inflammatory response

Structure (SMILES): O=C(O)c1ccc(/C=C2\SC(=S)N(c3cccc(C(F)(F)F)c3)C2=O)cc1 [I172]
- interaction between PPARγ and other transcription factors [2]: less interaction
- amiloride-sensitive sodium conductance [3]: do not display increased amiloride-sensitive sodium conductance
- basal and stimulated secretion of IL-8 [4]: increased basal and stimulated secretion of IL-8
- Smad3 expression [5]: decreased Smad3 expression
- activated RhoA [6]: increased activated RhoA
- cell morphology by electron microscopy [7]: no decrease in cell viability or change in cell morphology
- cell viability [7]: no decrease in cell viability; also recorded: without compromising cell viability

Structure (SMILES): CC(C)Cc1ccc(C(C)C(=O)O)cc1 (centres unmarked) [ibuprofen]
- incidence of gastrointestinal hemorrhage [8]: increased incidence
- rate of decline of pulmonary function [8]: slowed

Structure (SMILES): Cc1c(C)c2c(c(C)c1O)CCC(C)(COc1ccc(CC3SC(=O)NC3=O)cc1)O2 (single isomer, unassigned; (+)) [troglitazone, (+)-5[[4-[(3,4-dihydro-6-hydroxy-2,5,7,8-tetramethyl-2H-1-benzopyran-2-yl)methoxy]phenyl]methyl]-2,4thiazolidinedione]
- activation of NF-κB driven luciferase activity [9]: significantly inhibited
